# Data as given in patent US8633226B2, “Piperidinyl derivative as a modulator of chemokine receptor activity” (Bristol-Myers Squibb Company, priority 2008, dated 2014).
# Like-named read-outs stand apart in the source and are kept apart here.
# Experiments:
# hERG = hERG (Homo sapiens (Human), UniProt Q12809); assay: hERG patch clamp assay; type: cell-based; details: HEK-293 cells stably expressing hERG, pH 7.4, protein-free buffer, read-out: hERG, % inh @ 30 μM
# Protocol: Whole-cell patch-clamp was used to directly measure hERG tail currents in HEK-293 cells stably expressing the cloned hERG potassium channel α subunit. Effects of compounds were calculated by measuring inhibition of peak tail current. Experiments were carried out using an aqueous buffer with pH 7.4 at room temperature. There was no protein in the assay buffer. The test concentrations reported are nominal free drug levels.
# [1] = target: human cardiac L-type Ca channel (α1C) and its β subunit (Homo sapiens (Human), UniProt Q13936); assay: L-type calcium channel whole-cell patch-clamp assay; type: cell-based; details: 30 μM, HEK-293 cells, protein-free buffer
# Chain of human cardiac L-type Ca channel (α1C) and its β subunit (Q13936 whole entry): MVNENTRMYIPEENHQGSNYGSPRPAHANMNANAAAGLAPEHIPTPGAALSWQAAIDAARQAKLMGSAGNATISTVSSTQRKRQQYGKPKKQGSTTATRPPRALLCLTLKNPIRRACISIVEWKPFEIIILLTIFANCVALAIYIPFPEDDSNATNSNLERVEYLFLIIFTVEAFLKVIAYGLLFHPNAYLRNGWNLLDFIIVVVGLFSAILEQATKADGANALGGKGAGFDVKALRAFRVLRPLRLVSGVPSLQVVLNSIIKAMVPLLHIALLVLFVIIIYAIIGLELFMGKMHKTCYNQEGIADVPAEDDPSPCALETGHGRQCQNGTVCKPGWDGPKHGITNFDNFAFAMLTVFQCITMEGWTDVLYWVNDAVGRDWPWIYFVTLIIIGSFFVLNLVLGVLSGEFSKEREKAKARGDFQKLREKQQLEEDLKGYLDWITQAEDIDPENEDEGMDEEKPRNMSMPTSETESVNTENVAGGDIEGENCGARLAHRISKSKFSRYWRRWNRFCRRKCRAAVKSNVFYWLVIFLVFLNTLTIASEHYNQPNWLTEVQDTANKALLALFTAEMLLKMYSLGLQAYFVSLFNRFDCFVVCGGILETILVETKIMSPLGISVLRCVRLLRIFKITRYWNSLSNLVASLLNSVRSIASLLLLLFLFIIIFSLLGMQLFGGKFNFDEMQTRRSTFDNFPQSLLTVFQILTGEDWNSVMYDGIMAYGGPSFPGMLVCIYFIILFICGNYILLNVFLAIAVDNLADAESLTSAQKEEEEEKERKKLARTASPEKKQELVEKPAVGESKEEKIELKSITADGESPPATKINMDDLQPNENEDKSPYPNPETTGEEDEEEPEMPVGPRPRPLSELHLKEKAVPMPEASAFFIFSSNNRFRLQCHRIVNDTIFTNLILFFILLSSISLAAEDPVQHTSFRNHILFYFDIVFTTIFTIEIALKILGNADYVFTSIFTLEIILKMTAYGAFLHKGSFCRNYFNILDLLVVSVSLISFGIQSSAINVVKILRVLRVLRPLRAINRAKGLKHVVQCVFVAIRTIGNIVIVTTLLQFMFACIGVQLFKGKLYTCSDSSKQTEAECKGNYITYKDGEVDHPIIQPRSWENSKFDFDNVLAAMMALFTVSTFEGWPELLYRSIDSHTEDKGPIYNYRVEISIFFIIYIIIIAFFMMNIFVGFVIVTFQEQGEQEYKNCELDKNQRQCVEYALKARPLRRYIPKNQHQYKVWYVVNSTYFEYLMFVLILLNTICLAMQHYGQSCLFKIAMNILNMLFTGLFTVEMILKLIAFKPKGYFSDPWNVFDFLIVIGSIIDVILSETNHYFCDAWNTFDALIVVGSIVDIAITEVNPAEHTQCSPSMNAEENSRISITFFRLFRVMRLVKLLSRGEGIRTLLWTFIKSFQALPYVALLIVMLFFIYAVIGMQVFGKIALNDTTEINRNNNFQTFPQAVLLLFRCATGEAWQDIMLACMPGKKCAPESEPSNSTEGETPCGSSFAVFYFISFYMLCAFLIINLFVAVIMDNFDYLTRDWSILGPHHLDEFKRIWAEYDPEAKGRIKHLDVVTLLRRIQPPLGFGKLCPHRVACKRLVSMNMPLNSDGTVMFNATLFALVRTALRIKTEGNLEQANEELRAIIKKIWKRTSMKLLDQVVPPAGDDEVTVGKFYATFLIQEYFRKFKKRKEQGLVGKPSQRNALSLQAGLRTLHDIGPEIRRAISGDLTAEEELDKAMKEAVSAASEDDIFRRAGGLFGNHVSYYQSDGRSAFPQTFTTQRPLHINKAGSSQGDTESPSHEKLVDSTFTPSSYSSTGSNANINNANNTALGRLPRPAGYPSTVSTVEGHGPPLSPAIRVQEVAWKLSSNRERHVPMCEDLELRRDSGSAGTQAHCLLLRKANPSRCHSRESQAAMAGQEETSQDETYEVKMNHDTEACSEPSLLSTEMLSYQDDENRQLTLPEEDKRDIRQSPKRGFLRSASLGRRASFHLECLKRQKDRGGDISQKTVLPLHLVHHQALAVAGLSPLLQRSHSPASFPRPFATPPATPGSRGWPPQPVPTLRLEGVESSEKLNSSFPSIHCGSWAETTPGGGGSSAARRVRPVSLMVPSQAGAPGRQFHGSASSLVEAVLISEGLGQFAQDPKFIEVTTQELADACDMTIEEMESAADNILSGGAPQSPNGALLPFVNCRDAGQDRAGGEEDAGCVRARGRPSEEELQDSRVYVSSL
# Chain of human cardiac L-type Ca channel (α1C) and its β subunit (Q08289 whole entry partner): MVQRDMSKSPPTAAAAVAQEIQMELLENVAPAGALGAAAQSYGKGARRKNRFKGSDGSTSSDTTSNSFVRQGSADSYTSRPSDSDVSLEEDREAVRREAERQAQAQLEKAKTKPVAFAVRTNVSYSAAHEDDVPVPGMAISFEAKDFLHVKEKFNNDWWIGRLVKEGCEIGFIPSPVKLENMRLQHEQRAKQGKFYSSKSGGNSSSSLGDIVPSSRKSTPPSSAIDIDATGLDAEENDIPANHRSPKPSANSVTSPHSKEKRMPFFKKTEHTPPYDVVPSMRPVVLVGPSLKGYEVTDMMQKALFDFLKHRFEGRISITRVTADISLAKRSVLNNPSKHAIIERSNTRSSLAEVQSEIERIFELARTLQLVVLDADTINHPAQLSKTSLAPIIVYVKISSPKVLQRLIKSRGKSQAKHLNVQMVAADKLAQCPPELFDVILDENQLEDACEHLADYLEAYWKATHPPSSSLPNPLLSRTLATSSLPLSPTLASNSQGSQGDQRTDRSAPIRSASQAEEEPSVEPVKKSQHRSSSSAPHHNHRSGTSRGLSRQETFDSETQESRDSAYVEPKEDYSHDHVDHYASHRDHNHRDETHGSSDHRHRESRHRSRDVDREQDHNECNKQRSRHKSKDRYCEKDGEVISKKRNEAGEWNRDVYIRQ
# Protocol: In addition to the potential for interaction with the L-type calcium channel, whole-cell patch-clamp was used to directly measure inward calcium currents in HEK-293 cells stably expressing the cloned human cardiac L-type Ca channel (α1C) and its β subunit. Effects of compounds were calculated by measuring inhibition of peak current. Experiments were carried out using an aqueous buffer at pH 7.4 and at room temperature. There is no protein in the buffer and drug concentrations reported are nominal free drug levels.
# Protein binding, human = type: in vitro ADME
# [2] = Electrocardiography in anesthetized rabbits; type: in vivo; details: male, blood, anesthetized rabbit, iv
# Protocol: (§1) A dose-response study of test compound was conducted in anesthetized rabbits to assess the cardiac electrophysiologic profile established in the cellular ion channel assays.
# (§2) Experiments were performed in propofol-fentanyl anesthetized closed-chest male rabbits. A body surface electrocardiogram (ECG) and an intra-cardiac His-bundle electrogram were continuously monitored and recorded during the studies, using a PoNeMah system and a Prucka electrophysiological recording system, respectively. Test compound was prepared on the day of study in a vehicle of PEG400:ethanol:water (1:1:1) at a dosing concentration of 30 mg/mL. Test compound (n=3) or vehicle (n=3) was given intravenously over 5 minutes via an infusion pump at incremental doses of 3, 10 and 30 mg/kg. The interval between doses was 10 minutes, allowing for a 5-minute test agent infusion and a 5-minute rest period. Blood was sampled at baseline (pre-drug infusion) and immediately at the end of each infusion. For the 30 mg/kg dose, additional blood samples were taken at 10, 20 and 30 minutes after the end of infusion.
# (§3) PR interval, QRS duration and QT interval were averaged from a 1 minute ECG recording period at time of blood sampling. QT interval was corrected for heart rate effects using both Fridericia (QTcf) and Van der Water (QTcv) formulae. AH and HV intervals, representing A-V node conduction and His-Purkinje conduction, respectively, were assessed by manual measurements from the His-bundle electrogram. Data were expressed as percent change from pre-drug baseline (mean±SEM) for PR, QRS, AH and HV intervals as well as delta change from the pre-drug infusion baseline (mean±SEM) for QTc intervals. Changes of ≧10% in PR, QRS, and AH intervals, and 20% in HV interval, as well as >10 ms in QTc interval are considered significant based on experience with the model.
# anesthetized rabbits = assay: Electrocardiography in anesthetized rabbits; type: in vivo; details: anesthetized rabbit
# Protocol: as §1, §2, §3
# Chain of hERG (Q12809 whole entry): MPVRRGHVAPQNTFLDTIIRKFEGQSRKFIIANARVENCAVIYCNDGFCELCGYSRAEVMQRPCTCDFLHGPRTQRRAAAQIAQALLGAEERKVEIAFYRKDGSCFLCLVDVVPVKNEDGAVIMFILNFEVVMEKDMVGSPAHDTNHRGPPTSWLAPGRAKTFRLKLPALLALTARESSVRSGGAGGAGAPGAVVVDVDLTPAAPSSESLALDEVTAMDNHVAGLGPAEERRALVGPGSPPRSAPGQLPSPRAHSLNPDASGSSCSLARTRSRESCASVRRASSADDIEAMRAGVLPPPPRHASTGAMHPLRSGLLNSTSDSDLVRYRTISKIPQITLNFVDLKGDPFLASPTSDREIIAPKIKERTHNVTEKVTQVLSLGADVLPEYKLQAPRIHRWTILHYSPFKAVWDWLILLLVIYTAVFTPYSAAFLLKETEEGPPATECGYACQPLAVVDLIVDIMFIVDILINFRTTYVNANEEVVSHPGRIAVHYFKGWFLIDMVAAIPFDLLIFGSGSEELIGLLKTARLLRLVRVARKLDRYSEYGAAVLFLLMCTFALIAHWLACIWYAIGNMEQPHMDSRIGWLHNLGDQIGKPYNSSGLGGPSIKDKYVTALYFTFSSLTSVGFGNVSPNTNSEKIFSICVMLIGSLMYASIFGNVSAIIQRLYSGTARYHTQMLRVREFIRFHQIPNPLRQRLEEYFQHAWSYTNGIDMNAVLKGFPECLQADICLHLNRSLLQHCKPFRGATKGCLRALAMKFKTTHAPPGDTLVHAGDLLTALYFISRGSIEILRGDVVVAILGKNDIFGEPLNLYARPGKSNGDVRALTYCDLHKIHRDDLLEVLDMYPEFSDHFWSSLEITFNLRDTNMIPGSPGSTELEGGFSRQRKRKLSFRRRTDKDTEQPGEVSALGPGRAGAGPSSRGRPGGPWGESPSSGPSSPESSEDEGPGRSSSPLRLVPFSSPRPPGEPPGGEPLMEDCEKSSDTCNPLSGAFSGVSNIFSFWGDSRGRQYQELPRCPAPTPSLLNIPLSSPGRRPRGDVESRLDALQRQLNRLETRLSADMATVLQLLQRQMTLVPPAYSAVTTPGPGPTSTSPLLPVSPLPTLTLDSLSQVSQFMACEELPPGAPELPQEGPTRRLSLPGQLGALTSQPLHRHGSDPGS
smiles,measurement,setting,value
CC(C)[C@@H](NC(=O)NCC(C)(C)O)C(=O)N1CC[C@](O)(c2ccc(Cl)cc2)C(C)(C)C1 [Compound I],inhibition at 30 µM,hERG,29%
same,"Ca, % inh",[1],29% @ 30 μM
same,fraction unbound,"Protein binding, human",0.19
same,Cmax,"[2]; 30 mg/kg, read-out: Cmax: Total drug at QT effect dose",202 µM
same,Cmax,"[2]; NOEL dose 10 mg/kg, read-out: Cmax: Total drug at NOEL dose",65.2 µM
same,NOEL dose (No Observed Effect Level),anesthetized rabbits; iv infusion,10 mg/kg
same,QT effect Dose,anesthetized rabbits; iv infusion,30 mg/kg
same,"QTcf, delta","anesthetized rabbits; iv infusion, at QT effect dose 30 mg/kg",12 ms
same,Cmax: Free drug at QT effect dose,"anesthetized rabbits; iv, 30 mg/kg",26 µM
same,Cmax: Free drug at NOEL dose,"anesthetized rabbits; iv, NOEL dose 10 mg/kg",8.5 µM
